Measurements published in PubChem BioAssay AID2060604 (Molecular Pharmacology Branch, DTP, NCI, 2025).
“And” between values parts separate entries of the source, which are not always exact repeats. Equal values may be shown once.

Test system: 379773-124-R-J2-PDC complex spheroids, viability % test/control
Assay: Anticancer human tumor 379773-124-R-J2-PDC patient-derived endometrial carcinoma cell line growth inhibition [CLK]
Settings: for viability, T/C: stronger effect = lower value
Procedure, shortened: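 Patient-derived tumor cells grown as complex spheroids with HUVEC endothelial cells and mesenchymal stem cells, treated with drug combinations. Concentrations descend in half-log steps from near clinical Cmax, or from 10 microM if Cmax unknown.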

[1] = curve of first compound, second compound 0.0316 µM
[2] = curve of first compound, second compound 0.1 µM
[3] = curve of first compound, second compound 0.316 µM
[4] = curve of first compound, second compound 1 µM
[5] = curve of first compound, second compound 3.16 µM
[6] = curve of first compound, second compound 10 µM
[7] = second compound 0.0316 µM, first compound 0.0316 µM
[8] = second compound 0.0316 µM, first compound 0.1 µM
[9] = second compound 0.0316 µM, first compound 0.316 µM
[10] = second compound 0.0316 µM, first compound 1 µM
[11] = second compound 0.1 µM, first compound 0.0316 µM
[12] = second compound 0.1 µM, first compound 0.1 µM
[13] = second compound 0.1 µM, first compound 0.316 µM
[14] = second compound 0.1 µM, first compound 1 µM
[15] = second compound 0.316 µM, first compound 0.0316 µM
[16] = second compound 0.316 µM, first compound 0.1 µM
[17] = second compound 0.316 µM, first compound 0.316 µM
[18] = second compound 0.316 µM, first compound 1 µM
[19] = second compound 1 µM, first compound 0.0316 µM
[20] = second compound 1 µM, first compound 0.1 µM
[21] = second compound 1 µM, first compound 0.316 µM
[22] = second compound 1 µM, first compound 1 µM
[23] = second compound 3.16 µM, first compound 0.0316 µM
[24] = second compound 3.16 µM, first compound 0.1 µM
[25] = second compound 3.16 µM, first compound 0.316 µM
[26] = second compound 3.16 µM, first compound 1 µM
[27] = second compound 10 µM, first compound 0.0316 µM
[28] = second compound 10 µM, first compound 0.1 µM
[29] = second compound 10 µM, first compound 0.316 µM
[30] = second compound 10 µM, first compound 1 µM
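Also: compound exposure lasted seven days before the viability readout.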
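For viability, T/C in this document: 100% = DMSO vehicle control wells.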

`CNC(=O)c1ccc(Nc2nc(OC3CCCC3)c3c(-c4ccc5nc(C)oc5c4)c[nH]c3n2)c(OC)c1` was tested, and the viability, T/C (compound 0.0316 µM) was 82.9% [middle of 12 runs], the viability, T/C (compound 0.1 µM) was 39.7% [middle of 12 runs] and the viability, T/C (compound 0.316 µM) was 39% [middle of 12 runs]. The viability, T/C (compound 1 µM) was 32.1% [middle of 12 runs], the viability, T/C (compound 3.16 µM) was 35.5% [middle of 12 runs] and the viability, T/C (compound 10 µM) was 33.9% [middle of 12 runs]. The IC50 (compound alone, run of 09/19/2023) was 75.8 nM [middle of 12 runs].
With `CC1COCCN1c1cc(C2(S(C)(=N)=O)CC2)nc(-c2ccnc3[nH]ccc23)n1` (stereo not drawn) the viability, T/C (compound 0.0316 µM) was 90.7% and 97.2%, the viability, T/C (compound 0.1 µM) was 80.4% and 89.4% and the viability, T/C (compound 0.316 µM) was 70.8% and 87.9%. For the same molecule, the viability, T/C (compound 1 µM) was 88.6% and 74.2%, the viability, T/C (compound 3.16 µM) was 44.8% and 47.4% and the viability, T/C (compound 10 µM) was 11.5% and 10.6%. The IC50 (curve of compound) was 2700 nM and 2870 nM.
With `O=C(c1cc(Cc2n[nH]c(=O)c3ccccc23)ccc1F)N1CCN(C(=O)C2CC2)CC1` + CN1CCN(c2cc(C(=O)Nc3cc4cc(-c5cnn(C)c5)ccc4cn3)ccn2)CC1 the IC50 [1] was > 10000 nM, the IC50 [2] was 6850 nM and the IC50 [3] was < 31.6 nM. The IC50 [4] was < 31.6 nM, the IC50 [5] was < 31.6 nM and the IC50 [6] was < 31.6 nM. The viability, T/C [7] was 101%, the viability, T/C [8] was 98.7% and the viability, T/C [9] was 87.9%. For the same molecule, the viability, T/C [10] was 89.9%, the viability, T/C (second compound 0.0316 µM, first compound 3.16 µM) was 78.6% and the viability, T/C (second compound 0.0316 µM, first compound 10 µM) was 51.7%. For the same molecule, the viability, T/C [11] was 73.5%, the viability, T/C [12] was 76.6% and the viability, T/C [13] was 87.8%. It also gave a viability, T/C [14] of 94.2%, a viability, T/C (second compound 0.1 µM, first compound 3.16 µM) of 76.6% and a viability, T/C (second compound 0.1 µM, first compound 10 µM) of 36.9%. The viability, T/C [15] was 16.7%, the viability, T/C [16] was 22.3% and the viability, T/C [17] was 15.1%. The viability, T/C [18] was 23.2%, the viability, T/C (second compound 0.316 µM, first compound 3.16 µM) was 16.8% and the viability, T/C (second compound 0.316 µM, first compound 10 µM) was 12.3%. It also gave a viability, T/C [19] of 0.11%, a viability, T/C [20] of 1.49% and a viability, T/C [21] of 0.2%. The viability, T/C [22] was 1.01%, the viability, T/C (second compound 1 µM, first compound 3.16 µM) was 0.08% and the viability, T/C (second compound 1 µM, first compound 10 µM) was 1.87%. It also gave a viability, T/C [23] of 1.24%, a viability, T/C [24] of 0.11% and a viability, T/C [25] of 1.32%. The viability, T/C [26] was 0.09%, the viability, T/C (second compound 3.16 µM, first compound 3.16 µM) was 0.1% and the viability, T/C (second compound 3.16 µM, first compound 10 µM) was 0.09%. It also gave a viability, T/C [27] of 0.19%, a viability, T/C [28] of 0.11% and a viability, T/C [29] of 0.46%. It also gave a viability, T/C [30] of 0.66%, a viability, T/C (second compound 10 µM, first compound 3.16 µM) of 0.18% and a viability, T/C (second compound 10 µM, first compound 10 µM) of 0.19%.
With `CCN1CCN(Cc2ccc(Nc3ncc(F)c(-c4cc(F)c5nc(C)n(C(C)C)c5c4)n3)nc2)CC1` + CN1CCN(c2cc(C(=O)Nc3cc4cc(-c5cnn(C)c5)ccc4cn3)ccn2)CC1 the IC50 [1] was > 1000 nM, the IC50 [2] was > 1000 nM and the IC50 [3] was < 3.16 nM. The IC50 [4] was < 3.16 nM, the IC50 [5] was < 3.16 nM and the IC50 [6] was < 3.16 nM. It also gave a viability, T/C (second compound 0.0316 µM, first compound 0.00316 µM) of 90.3%, a viability, T/C (second compound 0.0316 µM, first compound 0.01 µM) of 85.3% and a viability, T/C [7] of 82.2%. For the same molecule, the viability, T/C [8] was 98%, the viability, T/C [9] was 86% and the viability, T/C [10] was 79.6%. For the same molecule, the viability, T/C (second compound 0.1 µM, first compound 0.00316 µM) was 101%, the viability, T/C (second compound 0.1 µM, first compound 0.01 µM) was 76.5% and the viability, T/C [11] was 76.9%. For the same molecule, the viability, T/C [12] was 80.7%, the viability, T/C [13] was 78.1% and the viability, T/C [14] was 72%. For the same molecule, the viability, T/C (second compound 0.316 µM, first compound 0.00316 µM) was 32.4%, the viability, T/C (second compound 0.316 µM, first compound 0.01 µM) was 26% and the viability, T/C [15] was 30.9%. For the same molecule, the viability, T/C [16] was 30.3%, the viability, T/C [17] was 39.7% and the viability, T/C [18] was 32.5%. For the same molecule, the viability, T/C (second compound 1 µM, first compound 0.00316 µM) was 0.18%, the viability, T/C (second compound 1 µM, first compound 0.01 µM) was 0.18% and the viability, T/C [19] was 1.15%. It also gave a viability, T/C [20] of 0.3%, a viability, T/C [21] of 0.96% and a viability, T/C [22] of 2.04%. The viability, T/C (second compound 3.16 µM, first compound 0.00316 µM) was 0.11%, the viability, T/C (second compound 3.16 µM, first compound 0.01 µM) was 0.15% and the viability, T/C [23] was 0.25%. It also gave a viability, T/C [24] of 0.83%, a viability, T/C [25] of 0.11% and a viability, T/C [26] of 0.44%. The viability, T/C (second compound 10 µM, first compound 0.00316 µM) was 1.88%, the viability, T/C (second compound 10 µM, first compound 0.01 µM) was 1.3% and the viability, T/C [27] was 0.17%. The viability, T/C [28] was 1.36%, the viability, T/C [29] was 0.15% and the viability, T/C [30] was 0.16%.
